The values below come from patent publication EP0384661A1, “Antialgal compositions comprising diphenylethers” (ROHM AND HAAS COMPANY, priority 1989, dated 1990).

Format in all cases: cell-based
Test [1] concerns mixed population of algae and blue-green bacteria. Nature of the test: Model cooling tower biofilm efficacy (chlorophyll a). As to conditions: one-per-week slug doses, biofilm harvested after four weeks. How it is done:
Oxyfluorfen was tested as a water treatment antialgal compound in model cooling towers which simulate pertinent process variables of industrial cooling towers. Compounds were dosed on a regular basis and the efficacy of the treatments was determined by measuring a parameter of algal or cyanobacterial biomass; specific operating parameters are described below.
The basic design consisted of an acrylic plastic tower placed within a 17-liter polycarbonate basin. Each model contained a temperature control system, acid (H₂SO₄) or base (KOH) feed for pH control, air flow regulators, water recirculation system, and a makeup water supply. Two sets of five towers were placed in vented enclosures.
The basin contained an overflow port positioned to provide a constant 8-liter working volume in the system. […]
Illumination was provided by cool white and grow-lux fluorescent lights operated on a 19 hours per day cycle. The heating system for each unit consisted of an immersion heating element, temperature controller, two thermistors, and a direct readout thermometer. […]
The model cooling towers were designed and operated to maintain a constant half-life in each unit. […] The rate of removal of a given compound from the system was thereby determined by the concentration of the material in the bulkwater and the rate of blowdown from the tower. […]

For a further test, the system named is Anabaena flos-aquae. The test is described as follows: MIC microtiter plate assay. As to conditions: Dolichospermum flos-aquae; growth/no-growth after 14 or 21 days, 25°C. How it is done: Efficacy studies were conducted on a variety of microorganisms with oxyfluorfen. Minimum Inhibitory Concentration (MIC) studies were conducted using microtiter plate assays. In this method, a wide range of concentrations was tested by preparing two-fold serial dilutions of the compound in 96-well plastic microtiter plates. All liquid media transfers were performed with calibrated single or multichannel digital pipetters. Stock solutions of compounds were prepared in appropriate solvents and dispensed to the growth medium. All subsequent dilutions in plates were made using the desired growth medium. The total volume of liquid in each well was 100 ul. The pure cultures used in this study were obtained from the Culture Collection of Algae at the University of Texas at Austin (UTEX). The mixed culture of algae was obtained from a cooling tower biofilm and maintained in liquid medium; microorganisms used as inocula were cultured in shaken liquid culture (50 ml of Bristol's medium, pH 7.0, 25°C); Journal of Phycology, 23s: 1-47, 1987) for one week or as needed to attain a desired cell mass. The cultures were then inoculated into the microtiter plates using a 96-prong multiple inoculator (5 µl inoculum); each well received a standard suspension of biomass (5% inoculum). Plates were incubated at 25°C under constant illumination (500 ft candles). The extent of growth was determined under low magnification with the aid of a microtiter plate reader. The growth in each cell was monitored periodically and growth/no-growth was recorded after 14 or 21 days. […] Following the evaluation procedure of Example 3, compounds according to the following structural formula, with X and Y substituents according to Table 4A, were evaluated with the results shown in Table 4B. [drawing 4]

A further test relates to Chlorella pyrenoidosa. The test is described as follows: MIC microtiter plate assay. As to conditions: growth/no-growth after 14 or 21 days, 25°C. How it is done:
(§1) Efficacy studies were conducted on a variety of microorganisms with oxyfluorfen. Minimum Inhibitory Concentration (MIC) studies were conducted using microtiter plate assays. In this method, a wide range of concentrations was tested by preparing two-fold serial dilutions of the compound in 96-well plastic microtiter plates. All liquid media transfers were performed with calibrated single or multichannel digital pipetters. Stock solutions of compounds were prepared in appropriate solvents and dispensed to the growth medium. All subsequent dilutions in plates were made using the desired growth medium. The total volume of liquid in each well was 100 ul. The pure cultures used in this study were obtained from the Culture Collection of Algae at the University of Texas at Austin (UTEX). The mixed culture of algae was obtained from a cooling tower biofilm and maintained in liquid medium; microorganisms used as inocula were cultured in shaken liquid culture (50 ml of Bristol's medium, pH 7.0, 25°C); Journal of Phycology, 23s: 1-47, 1987) for one week or as needed to attain a desired cell mass. The cultures were then inoculated into the microtiter plates using a 96-prong multiple inoculator (5 µl inoculum); each well received a standard suspension of biomass (5% inoculum). Plates were incubated at 25°C under constant illumination (500 ft candles). The extent of growth was determined under low magnification with the aid of a microtiter plate reader. The growth in each cell was monitored periodically and growth/no-growth was recorded after 14 or 21 days.

A further test has as its system Clorococcum oleofaciens. The test is described as follows: MIC microtiter plate assay. The following applies: growth/no-growth after 14 or 21 days, 25°C. How it is done:
as §1

A further test has as its system Nostoc commune. Nature of the test: MIC microtiter plate assay. The following applies: growth/no-growth after 14 or 21 days, 25°C. How it is done: as §1
The test system of test [2] is Phormidium luridum var. olivace. The test is described as follows: MIC microtiter plate assay. The following applies: Drouetiella lurida; growth/no-growth after 14 or 21 days, 25°C. As for the experimental part: as §1
Another test relates to Scendesmus quadricaudra. Nature of the test: MIC microtiter plate assay. As to conditions: growth/no-growth after 14 or 21 days, 25°C. As for the experimental part: as §1
In test [3] the test system is Selanastrum capricornutum. Nature of the test: MIC microtiter plate assay. As to conditions: growth/no-growth after 14 or 21 days, 25°C. How it is done: as §1
Test [4] deals with Synechococcus leopooliensis. Nature of the test: MIC microtiter plate assay. As to conditions: growth/no-growth after 14 or 21 days, 25°C. How it is done: as §1

Values after ≈ are worked out from the molar mass of the structure shown.

On to `CCOc1cc(Oc2ccc(C(F)(F)F)cc2Cl)ccc1[N+](=O)[O-]` [Oxyfluorfen, oxyfluorfen], for which the “Chlorophyll a in Biofilm” value in test [1] (0.05 ppm) is reported as 3.27 ug/cm2. Further, the activity at 0.05 ppm in test [1] (672 h, read-out: Chlorophyll a in Biofilm % of control) worked out at 24%. The MIC against Anabaena flos-aquae is over 500 µg/mL; against Chlorella pyrenoidosa, 0.125 ppm; with Clorococcum oleofaciens it was over 0.125 µg/mL; in the test on Nostoc commune, over 500 µg/mL; in [2], over 500 µg/mL; with Scendesmus quadricaudra, under 2 ng/mL. The MIC in [3] was 8 ng/mL (≈ 0.0221 µM); in test [4], over 500 µg/mL.
